In PubChem BioAssay AID330 (DTP/NCI, 2004):
Where “and” joins values, the source holds several entries; their conditions need not be identical. Identical values can stand only once. Inconclusive results and toxic doses are left out. How the source made its calls: active means survival T/C of 150% or more; inactive means T/C below 125% in these data.

System: P388 leukemia ip, CD2F1 mice, survival T/C
Experiment: NCI In Vivo Anticancer Drug Screen. Data for tumor model P388 Leukemia (intraperitoneal) in CD2F1 (CDF1) mice
Settings: endpoint: median survival time, higher = longer survival
Outline: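 Mice carrying the transplanted tumor received test compound or vehicle. Survival was recorded in each group, and the value is the treated-group measurement divided by that of the vehicle-treated control group.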

[1] = dose: 60.0 mg/kg/injection, schedule: Q01DX005 (ip), vehicle: saline with Tween-80
[2] = dose: 120.0 mg/kg/injection, schedule: Q01DX005 (ip), vehicle: saline with Tween-80
[3] = dose: 240.0 mg/kg/injection, schedule: Q01DX005 (ip), vehicle: saline with Tween-80
[4] = dose: 50.0 mg/kg/injection, schedule: Q01DX005 (ip), vehicle: saline with Tween-80
[5] = dose: 100.0 mg/kg/injection, schedule: Q01DX005 (ip), vehicle: saline with Tween-80
[6] = dose: 50.0 mg/kg/injection, schedule: Q01DX009 (ip), vehicle: saline with Tween-80
[7] = dose: 100.0 mg/kg/injection, schedule: Q01DX009 (ip), vehicle: saline with Tween-80
[8] = dose: 200.0 mg/kg/injection, schedule: Q01DX009 (ip), vehicle: saline with Tween-80
[9] = dose: 12.5 mg/kg/injection, schedule: Q01DX005 (ip), vehicle: saline
[10] = dose: 25.0 mg/kg/injection, schedule: Q01DX005 (ip), vehicle: saline
[11] = dose: 50.0 mg/kg/injection, schedule: Q01DX005 (ip), vehicle: saline
[12] = dose: 50.0 mg/kg/injection, schedule: Q01DX009 (ip), vehicle: saline
[13] = dose: 100.0 mg/kg/injection, schedule: Q01DX009 (ip), vehicle: saline
[14] = dose: 200.0 mg/kg/injection, schedule: Q01DX009 (ip), vehicle: saline
[15] = dose: 100.0 mg/kg/injection, schedule: Q04DX003 (ip), vehicle: Klucel (hydroxypropylcellulose) (HPC)
[16] = dose: 200.0 mg/kg/injection, schedule: Q04DX003 (ip), vehicle: Klucel (hydroxypropylcellulose) (HPC)
[17] = dose: 400.0 mg/kg/injection, schedule: Q04DX003 (ip), vehicle: Klucel (hydroxypropylcellulose) (HPC)
[18] = dose: 200.0 mg/kg/injection, schedule: Q01DX005 (ip), vehicle: saline with Tween-80

Measured: T/C

CSC1=NC(C)(C)N=C(Oc2cc(Cl)cc(Cl)c2)N1
inactive: [1] 89 % of control | [2] 94 % of control | [3] 92 % of control

CC(NC(=O)c1ccc(C(C[N+](=O)[O-])SCCC(=O)O)cc1)C(=O)O (configuration not stated)
inactive: dose: 60.0 mg/kg/injection, schedule: Q01DX005 (ip), vehicle: saline + Tween-80 + alcohol 98 % of control | dose: 120.0 mg/kg/injection, schedule: Q01DX005 (ip), vehicle: saline + Tween-80 + alcohol 99 % of control | dose: 240.0 mg/kg/injection, schedule: Q01DX005 (ip), vehicle: saline + Tween-80 + alcohol 107 % of control

O=C(NCCCl)OCC1=C(COC(=O)NCCCl)C(=O)c2ccccc2C1=O
inactive: dose: 12.5 mg/kg/injection, schedule: Q01DX005 (ip), vehicle: saline with Tween-80 100 % of control and 102 % of control | dose: 25.0 mg/kg/injection, schedule: Q01DX005 (ip), vehicle: saline with Tween-80 101 % of control and 106 % of control | [4] 110 % of control | [5] 113 % of control

COc1cc2c(cc1OC)C1N(CC2)C(=O)NC1(C)C (configuration not stated)
inactive: [1] 97 % of control | [2] 103 % of control | [3] 98 % of control

CC1=NN(C(=O)c2ccncc2)C(=O)C1N=Nc1ccc(C)c([N+](=O)[O-])c1 (configuration not stated)
inactive: [6] 107 % of control | [7] 101 % of control | [8] 97 % of control

NCC(c1ccccc1)C1CCCCC1 (configuration not stated)
inactive: [9] 103 % of control | [10] 94 % of control | [11] 100 % of control and 95 % of control

CC(C)/[N+]([O-])=N\O
inactive: dose: 3.0 mg/kg/injection, schedule: Q01DX005 (ip), vehicle: Klucel (hydroxypropylcellulose) (HPC) 101 % of control | dose: 6.0 mg/kg/injection, schedule: Q01DX005 (ip), vehicle: Klucel (hydroxypropylcellulose) (HPC) 98 % of control | dose: 12.0 mg/kg/injection, schedule: Q01DX005 (ip), vehicle: Klucel (hydroxypropylcellulose) (HPC) 100 % of control | dose: 24.0 mg/kg/injection, schedule: Q01DX005 (ip), vehicle: Klucel (hydroxypropylcellulose) (HPC) 98 % of control

COC(=O)COC(=O)CCCCC(=O)OCC(=O)OC
inactive: [12] 111 % of control | [13] 109 % of control | [14] 103 % of control

Cc1ccnc(NS(=O)(=O)c2ccc(N=Nc3c(O)n(-c4ccccc4)n(-c4ccccc4)c3=O)cc2)n1
inactive: dose: 50.0 mg/kg/injection, schedule: Q01DX009 (ip), vehicle: Klucel (hydroxypropylcellulose) (HPC) 86 % of control | dose: 100.0 mg/kg/injection, schedule: Q01DX009 (ip), vehicle: Klucel (hydroxypropylcellulose) (HPC) 86 % of control | dose: 200.0 mg/kg/injection, schedule: Q01DX009 (ip), vehicle: Klucel (hydroxypropylcellulose) (HPC) 91 % of control

CS(=O)(=O)OC1CC(Cl)CO1 (configuration not stated)
inactive: [15] 100 % of control | [16] 100 % of control | [17] 103 % of control

Cc1ccn2c([N+](=O)[O-])cnc2c1
inactive: [6] 107 % of control | [7] 104 % of control | [8] 102 % of control

CC(C)N1CCOC(c2cccc(C(F)(F)F)c2)C1 (configuration not stated)
inactive: [12] 101 % of control | [13] 99 % of control

N#CC1CCCC(Cc2ccccc2)(c2ccccc2)C1=O (configuration not stated)
inactive: dose: 100.0 mg/kg/injection, schedule: Q01DX001 (ip), vehicle: Klucel (hydroxypropylcellulose) (HPC) 101 % of control | dose: 200.0 mg/kg/injection, schedule: Q01DX001 (ip), vehicle: Klucel (hydroxypropylcellulose) (HPC) 102 % of control | dose: 400.0 mg/kg/injection, schedule: Q01DX001 (ip), vehicle: Klucel (hydroxypropylcellulose) (HPC) 100 % of control

CCOc1c(N=Nc2cccc(Cl)c2)c(-c2ccccc2)nn1C(=S)S
inactive: dose: 0.78 mg/kg/injection, schedule: Q01DX005 (ip), vehicle: saline with Tween-80 100 % of control | dose: 1.56 mg/kg/injection, schedule: Q01DX005 (ip), vehicle: saline with Tween-80 99 % of control | dose: 3.13 mg/kg/injection, schedule: Q01DX005 (ip), vehicle: saline with Tween-80 100 % of control | dose: 6.25 mg/kg/injection, schedule: Q01DX005 (ip), vehicle: saline with Tween-80 99 % of control and 100 % of control

CC(C)C(=O)OCC(C)(C)C(OC(=O)COc1ccc(Cl)cc1Cl)C(C)C (configuration not stated)
inactive: [4] 101 % of control | [5] 106 % of control | [18] 97 % of control

CC(C)(C)COC(=O)NC1CCC2CCCCC2C1 (configuration not stated)
inactive: [12] 88 % of control | [13] 97 % of control | [14] 101 % of control

NC(N)=NS(=O)(=O)c1ccc(N=Cc2c3ccccc3nc3cc(Cl)ccc23)cc1
inactive: [1] 91 % of control | [2] 91 % of control | [3] 91 % of control

C=COC(=O)C(Cc1ccc(Cl)cc1)NC(=O)OCc1ccccc1 (configuration not stated)
inactive: dose: 100.0 mg/kg/injection, schedule: Q04DX002 (ip), vehicle: Klucel (hydroxypropylcellulose) (HPC) 97 % of control | dose: 200.0 mg/kg/injection, schedule: Q04DX002 (ip), vehicle: Klucel (hydroxypropylcellulose) (HPC) 91 % of control | dose: 400.0 mg/kg/injection, schedule: Q04DX002 (ip), vehicle: Klucel (hydroxypropylcellulose) (HPC) 95 % of control

Fc1ccc(Oc2ccc(F)cc2)cc1
inactive: dose: 50.0 mg/kg/injection, schedule: Q04DX003 (ip), vehicle: saline with Tween-80 106 % of control | dose: 100.0 mg/kg/injection, schedule: Q04DX003 (ip), vehicle: saline with Tween-80 107 % of control | dose: 200.0 mg/kg/injection, schedule: Q04DX003 (ip), vehicle: saline with Tween-80 111 % of control | dose: 400.0 mg/kg/injection, schedule: Q04DX003 (ip), vehicle: saline with Tween-80 109 % of control

CC(C)=C(Nc1ccccc1)NC(C)C
inactive: dose: 6.25 mg/kg/injection, schedule: Q01DX005 (ip), vehicle: saline 103 % of control | [9] 103 % of control and 104 % of control | [10] 106 % of control and 120 % of control | [11] 118 % of control

O=C1CC2OCCC3CN4CCC56c7ccccc7N1C5C2C3CC46 (configuration not stated)
inactive: dose: 7.5 mg/kg/injection, schedule: Q01DX005 (ip), vehicle: Klucel (hydroxypropylcellulose) (HPC) 101 % of control | dose: 15.0 mg/kg/injection, schedule: Q01DX005 (ip), vehicle: Klucel (hydroxypropylcellulose) (HPC) 98 % of control | dose: 30.0 mg/kg/injection, schedule: Q01DX005 (ip), vehicle: Klucel (hydroxypropylcellulose) (HPC) 98 % of control

Cc1c(C)c2c(=O)c3ccccc3[nH]c2c2ccccc12
inactive: dose: 50.0 mg/kg/injection, schedule: Q01DX005 (ip), vehicle: Klucel (hydroxypropylcellulose) (HPC) 108 % of control | dose: 100.0 mg/kg/injection, schedule: Q01DX005 (ip), vehicle: Klucel (hydroxypropylcellulose) (HPC) 98 % of control | dose: 200.0 mg/kg/injection, schedule: Q01DX005 (ip), vehicle: Klucel (hydroxypropylcellulose) (HPC) 109 % of control

Cc1cccc(Nc2ncnc3c2c(=O)n(C)c(=O)n3C)c1
inactive: dose: 15.0 mg/kg/injection, schedule: Q01DX005 (ip), vehicle: saline with Tween-80 91 % of control | dose: 30.0 mg/kg/injection, schedule: Q01DX005 (ip), vehicle: saline with Tween-80 94 % of control | [1] 86 % of control

CC(C)(C)SC(=S)SCC(=O)c1ccc(Cl)cc1
inactive: [1] 99 % of control | [2] 98 % of control | [3] 100 % of control

CN(C)c1ccc(CCc2nc(N)nc3nccnc23)cc1
inactive: dose: 50.0 mg/kg/injection, schedule: Q04DX003 (ip), vehicle: Klucel (hydroxypropylcellulose) (HPC) 96 % of control | [15] 90 % of control | [16] 96 % of control | [17] 99 % of control

C=C[C@H](c1ccccc1O)c1cc(O)c(OC)cc1OC
inactive: dose: 31.0 mg/kg/injection, schedule: Q01DX005 (ip), vehicle: Klucel (hydroxypropylcellulose) (HPC) 103 % of control | dose: 62.0 mg/kg/injection, schedule: Q01DX005 (ip), vehicle: Klucel (hydroxypropylcellulose) (HPC) 103 % of control | dose: 124.0 mg/kg/injection, schedule: Q01DX005 (ip), vehicle: Klucel (hydroxypropylcellulose) (HPC) 93 % of control | dose: 248.0 mg/kg/injection, schedule: Q01DX005 (ip), vehicle: Klucel (hydroxypropylcellulose) (HPC) 94 % of control

COC1OC(C)(C(OC)OC)CCC1C (configuration not stated)
inactive: [4] 99 % of control | [5] 94 % of control | [18] 92 % of control
